Measured values reported in patent US5919785A, “Inhibitors of farnesyl-protein transferase” (Merck & Co., Inc., priority 1997, dated 1999).
Counter-ions that a name gives are not always drawn. Like-named read-outs stand apart in the source and are kept apart here.

Target: T1, human FPTase (Homo sapiens, UniProt P49354+P49356)
T1 construct: made in house
Assay: In vitro inhibition of ras farnesyl transferase (human FPTase assay)
Type: biochemical
Experimental: Assays of farnesyl-protein transferase. […] Reactions were initiated with FPTase and stopped with 1 ml of 1.0 M HCL in ethanol. Precipitates were collected onto filter-mats using a TomTec Mach HI cell harvester, washed with 100% ethanol, dried and counted in an LKB β-plate counter. […] Purified compounds were dissolved in 100% dimethyl sulfoxide (DMSO) and were diluted 20-fold into the assay. Percentage inhibition is measured by the amount of incorporation of radioactivity in the presence of the test compound when compared to the amount of incorporation in the absence of the test compound. […] Human FPTase activity was assayed as described above with the exception that 0.1% (w/v) polyethylene glycol 20,000, 10 μM ZnCl2 and 100 nM Ras-CVIM were added to the reaction mixture. Reactions were performed for 30 min., stopped with 100 μl of 30% (v/v) trichloroacetic acid (TCA) in ethanol and processed as described above for the bovine enzyme.

IC50 (human FPTase, [3H]-FPP, 100 nM Ras-CVIM, 30 min, read-out: IC50, inhibitory activity against human FPTase)	SMILES	IC50
≤ 50 µM	N#Cc1ccc(Cn2cncc2CN2CC(=O)N(Cc3ccccc3)CC2=O)cc1 [Example 5, 4-benzyl-1-[1-(4-cyanobenzyl)-5-imidazolylmethyl]-piperazine-2,5-dione hydrochloride]	–
–	N#Cc1ccc(Cn2cncc2CN2CC(=O)N(c3ccccc3)CC2=O)cc1 [Example 4, 4-[1-(4-cyanobenzyl)-5-imidazolylmethyl]-1-phenylpiperazine-2,5-dione hydrochloride]	≤ 50 µM
